Reference: article PMC8815882, “Screening the pandemic response box identified benzimidazole carbamates, Olorofim and ravuconazole as promising drug candidates for the treatment of eumycetoma” (PLoS Neglected Tropical Diseases, 2022)
Like-named read-outs stand apart in the source and are kept apart here.

System: M. mycetomatis genome strain MM55
Test: CLSI M38-A2 based in vitro susceptibility screening (XTT or resazurin), growth at fixed concentration
Format: cell-based, Madurella mycetomatis
Conditions: Madurella mycetomatis; for Percent fungal survival at 100 µM: read-out: Percentage survival at 100um, 100 uM A (second replicate column)
[1] = 25 uM, mean of three replicates, read-out: Percentage survival at 25um, 25 uM mean
[2] = 25 uM, replicate A, read-out: Percentage survival at 25um, 25 um A
[3] = 25 uM, replicate B, read-out: Percentage survival at 25um, 25 uM B
[4] = 25 uM, replicate C, read-out: Percentage survival at 25um, 25 uM C
[5] = mean of three replicates, read-out: Percentage survival at 100um, 100 uM mean
[6] = replicate 1, read-out: Percentage survival at 100um, 100 uM A (first replicate column)
[7] = replicate 3, read-out: Percentage survival at 100um, 100 uM A (third replicate column)
[8] = 25 uM, mean of replicates, MM55, read-out: Percentage survival at 25um, 25 uM mean
[9] = 25 uM, replicate A, MM55, read-out: Percentage survival at 25um, 25 um A
[10] = 25 uM, replicate B, MM55, read-out: Percentage survival at 25um, 25 uM B
[11] = 25 uM, replicate C, MM55, read-out: Percentage survival at 25um, 25 uM C
[12] = mean of replicates, MM55, read-out: Percentage survival at 100um, 100 uM mean
[13] = replicate 1, MM55, read-out: Percentage survival at 100um, 100 uM A
[14] = replicate 2, MM55, read-out: Percentage survival at 100um, 100 uM A
[15] = replicate 3, MM55, read-out: Percentage survival at 100um, 100 uM A
[16] = first replicate column, read-out: Percentage survival at 100um, 100 uM A
[17] = second replicate column, read-out: Percentage survival at 100um, 100 uM A
[18] = third replicate column, read-out: Percentage survival at 100um, 100 uM A

SMILES	activity at 25 µM [1]	activity at 25 µM [2]	activity at 25 µM [3]	activity at 25 µM [4]	activity at 100 µM [5]	activity at 100 µM [6]	Percent fungal survival at 100 µM (replicate 2)	activity at 100 µM [7]	activity at 100 µM [16]	activity at 100 µM [17]	activity at 100 µM [18]	also measured
CCC(CC)[C@H](NC(C)=O)[C@@H]1[C@H](O)[C@@H](C(=O)O)C[C@H]1NC(=N)N [MMV1593511]	92.7%	97.1%	98.3%	82.7%	89.1%	95.6%	83.3%	88.3%				
CCCCCCCCCN1C[C@@H](O)[C@H](O)[C@@H](O)[C@@H]1CO [MMV1593513]	93.6%	92%	104%	85.1%	87.5%	91.7%	84.5%	86.2%				
CNC(=O)C1O[C@@H](n2cnc3c(NCc4cccc(I)c4)nc(Cl)nc32)[C@H](O)[C@@H]1O (some centres unmarked) [MMV1593514]												activity at 25 µM [8]: 94.9%; activity at 25 µM [9]: 85.8%; activity at 25 µM [10]: 83.7%; activity at 25 µM [11]: 115%; activity at 100 µM [12]: 80.9%; activity at 100 µM [13]: 74.5%; activity at 100 µM [14]: 99.3%; activity at 100 µM [15]: 68.9%
CCOC(=O)N[C@@H]1CC[C@@H]2[C@@H](C1)C[C@H]1C(=O)O[C@H](C)[C@H]1[C@H]2/C=C/c1ccc(-c2cccc(F)c2)cn1 [MMV1593515]	69.2%	68.2%	80.3%	59.1%	72.9%	71.5%	65.2%	82%				
O=C(O)[C@H]1C2CCC(CC2)[C@@H]1Nc1nc(-c2c[nH]c3ncc(F)cc23)ncc1F [MMV1593516]	97.3%	98.8%	105%	88.2%	98.7%				107%	103%	86.5%	
O=C(/C=C/n1cnc(-c2cc(C(F)(F)F)cc(C(F)(F)F)c2)n1)NNc1cnccn1 [MMV1593517]	90.4%	63%	118%	90.3%	102%				102%	111%	95%	
C[C@@]1(O)[C@H](O)[C@@H](CO)O[C@H]1n1ccc2c(N)ncnc21 [MMV1593519]	94.2%	94.4%	105%	83.4%	86.2%				80.2%	92.3%	86.2%	
[N-]=[N+]=N[C@H]1C[C@H](n2ccc(=O)[nH]c2=O)O[C@@H]1CO [MMV1593520]		94.3%			87%				91.5%	80.1%	89.4%	activity at 25 µM (read-out: Percentage survival at 25um, 25 uM B): 107%; activity at 25 µM (read-out: Percentage survival at 25um, 25 uM C): 100%; activity at 25 µM (read-out: Percentage survival at 25um, 25 uM mean): 100%
CC(C)Nc1nc2cc(Cl)c(Cl)cc2n1[C@H]1O[C@@H](CO)[C@H](O)[C@@H]1O [MMV1593521]												activity at 25 µM [8]: 93.6%; activity at 25 µM [9]: 104%; activity at 25 µM [10]: 89.6%; activity at 25 µM [11]: 87%; activity at 100 µM [12]: 81.8%; activity at 100 µM [13]: 90.8%; activity at 100 µM [14]: 82%; activity at 100 µM [15]: 72.5%
O=C(Nc1ccc(-c2ccccc2)cc1)C1=C(O)C(Cc2ccccc2)OC1=O (centres unmarked) [MMV1593531]		71.9%	72%	74.7%								activity at 25 µM (25 uM, mean of replicates, read-out: Percentage survival at 25um, 25 uM mean): 72.9%; activity at 100 µM (mean of replicates, read-out: Percentage survival at 100um, 100 uM mean): 74.5%; activity at 100 µM (replicate 1, read-out: Percentage survival at 100um, 100 uM A): 74.2%; activity at 100 µM (replicate 2, read-out: Percentage survival at 100um, 100 uM A): 70.8%; activity at 100 µM (replicate 3, read-out: Percentage survival at 100um, 100 uM A): 78.4%
